According to PMC4941645, “Oxidative Stress Induced by Pt(IV) Pro-drugs Based on the Cisplatin Scaffold and Indole Carboxylic Acids in Axial Position” (Scientific Reports, 2016):

Columns and labels:
[1] = Reduction with ascorbic acid followed by HPLC; assay type: physicochemical; conditions: 10 eq. ascorbic acid, 37 °C, pH 7, HPLC; for complex reduced: 3 h incubation
Procedure: The reduction reaction of two representative complexes (1A and 1P) and the release of the indole carboxylic acid ligands was analyzed by HPLC using ascorbic acid as the reductant and 37 °C, pH 7 as physiological conditions (Fig. 4 and S1). The HPLC chromatograms of the reduction reaction of the complexes were compared with the chromatograms of pure samples of the carboxylic acid ligands. […] After 3 h incubation with 10 eq. of ascorbic acid 75% of 1P and 50% of 1A was reduced. […] We further studied the nature of the Pt(II) species produced upon the reduction of 1P and 1A by ^195Pt NMR. […] Unfortunately, monitoring the reduction reaction of the symetrically (2A and 2P) and unsymmetrically (3A–5A and 3P–5P) substituted dicarboxylato complexes was hampered by the poor solubility of the complexes in water and most organic solvents except DMF and DMSO. For the same reason the reduction potentials could not be determined by cyclic voltammetry. However it has been reported that the reduction rate of cis,cis,trans-[Pt(NH3)2Cl2(RCOO)(OH)] monocarboxylato complexes is faster than that of dicarboxylato complexes and this has been attributed to the fact that hydroxido ligands are much better bridging ligands for electron transfer than carboxylate ligands.
The reduction of the complexes 1A and 1P) with ascorbic acid was followed by HPLC using a Phenomenex Luna C18 ([…], 100 Å, 250 mm × 4.60 mm i.d.) column at a flow rate of 1.0 mL/min with 280 nm UV detection at room temperature. The mobile phase was 80:20 acetonitrile (1% trifluoroacetic acid) : water (1% trifluoroacetic acid). The complexes were dissolved in DMF (0.5 mL) and added to a 5 mM solution of ascorbic acid in 2 mM 4-(2-hydroxyethyl)piperazine-1-ethanesulfonic acid (HEPES) buffer (pH 7) and diluted to a final concentration of 0.5 mM using acetonitrile. The process was followed at 37 °C until complete reduction.

A375 cells [2] = test: Mitochondrial membrane potential; assay type: cell-based, human; conditions: A375, IC50 concentrations, 24 and 48 h
Procedure: A persistent increase in the rate of ROS production is responsible for the accumulation of ROS. In turn, an increase in cellular ROS leads to the loss of the mitochondrial membrane potential (ΔΨm, MMP), thus possibly leading to the induction of apoptosis. The effect induced by the Pt(IV) complexes on the MMP was assessed by treating A375 cells with IC50 concentrations of 1P and 1A and evaluating the energization of treated melanoma cells in terms of the retention of the cationic fluorescent probe tetramethyl rhodamine methyl ester (TMRM).
Figure 9 Effects of 1P and 1A on the cellular mitochondrial membrane potential. […] The percentage of cells with a hypopolarized mitochondrial membrane potential was determined fluorimetrically.
The ΔΨm was assayed using the Mito-ID® Membrane Potential Kit according to the manufacturer’s instructions (Enzo Life Sciences, Farmingdale, NY). Briefly, A375 cells (8 × 10^3 per well) were seeded in 96-well plates, after 24 h, cells were washed with PBS and loaded with Mito-ID Detection Reagent for 30 min at 37 °C in the dark. Afterwards, cells were washed with PBS and incubated with increasing concentrations of the tested complexes. The fluorescence was estimated using a plate reader (Fluoroskan Ascent FL, Labsystem, Finland) at 490 (excitation) and 590 nm (emission).

A375 cells [3] = test: Hoechst 33258 staining, apoptosis morphology; assay type: cell-based, human; conditions: A375, IC50 doses, 48 h
Procedure: A375 cells were seeded into 8-well tissue-culture slides (BD Falcon, Bedford, MA, USA) at 5 × 10^4 cells/well (0.8 cm^2).

[4] = test system: panel of human tumor cell lines (BxPC3, HCT-15, MCF-7, A431, A549, A375); test: MTT cytotoxicity, mean over panel of human tumor cell lines; assay type: cell-based; conditions: mean over the six cell lines of Table 1, 72 h
Procedure: The cytotoxic activity of the complexes and of the uncoordinated ligands was evaluated by the MTT test on a panel of human tumor cell lines containing examples of pancreatic (BxPC3), colorectal (HCT-15), breast (MCF-7), cervical (A431), and lung (A549) cancers as well as of melanoma (A375). For comparison purposes, the cytotoxicity of cisplatin was evaluated under the same experimental conditions.
The growth inhibitory effect toward tumor cells was evaluated by means of the MTT assay. Briefly, (3–8) × 10^3 cells/well, dependent upon the growth characteristics of the cell line, were seeded in 96-well microplates in growth medium (100 μL). After 24 h, the medium was removed and replaced with fresh medium containing the compound to be studied at the appropriate concentration. Triplicate cultures were established for each treatment. After 24, 48, or 72 h, each well was treated with 10 μL of a 5 mg/mL MTT saline solution and, after 5 h of incubation, 100 μL of a sodium dodecylsulfate (SDS) solution in 0.01 M HCl was added. After an overnight incubation, cell growth inhibition was detected by measuring the absorbance of each well at 570 nm using a Bio-Rad 680 microplate reader. The mean absorbance for each drug dose was expressed as a percentage of the control, untreated well absorbance and plotted vs drug concentration. The IC50 values, the drug concentrations that decrease the mean absorbance at 570 nm to 50% of that of untreated control wells, were calculated from the dose–response curves with the four-parameter logistic model (4PL). The final value is the mean ± S.D. of at least three independent experiments performed in triplicate.

A375 melanoma cells = test: Cellular accumulation of Pt (GF-AAS); assay type: cell-based, human; conditions: for cellular platinum accumulation (in words): A375, 1.5 and 3 μM, 6 and 24 h

Row | SMILES | time to complete reduction [1] | complex reduced [1] | cells with decreased mitochondrial membrane potential (in words) (A375 cells [2]) | apoptotic morphology (in words) (A375 cells [3]) | IC50 [4] | cellular platinum, times greater than cisplatin (A375 melanoma cells; A375, 3 μM, 24 h, GF-AAS) | cellular platinum accumulation (in words) (A375 melanoma cells) | cellular uptake level, times lower than cisplatin (A375 melanoma cells; A375, GF-AAS)
1 | [NH2][Pt]([NH2])([OH])([Cl])([Cl])[O]C(=O)Cc1c[nH]c2ccccc12 [Complex 1A] | 30 h | 50% | significant and time-dependent increase | morphological features typical of cells undergoing apoptosis | – | – | – | –
2 | [NH2][Pt]([NH2])([OH])([Cl])([Cl])[O]C(=O)CCc1c[nH]c2ccccc12 [Complex 1P, cis,cis,trans-[Pt(NH3)2Cl2(IPA)(OH)]] | 24 h | 75% | significant and time-dependent increase | morphological features typical of cells undergoing apoptosis | ~2500 nM | about 2.3 | internalized most efficiently | –
3 | [NH2][Pt]([NH2])([Cl])([Cl])([O]C(=O)CCC(=O)O)[O]C(=O)Cc1c[nH]c2ccccc12 [Complex 4A] | – | – | – | – | – | – | lowest platinum accumulation | about 7
